Our source for the RP-LC retention time values is the METLIN SMRT retention time set (Domingo-Almenara et al. 2019).

SMILES strings stand for the structures.

A short description of this data set: gradient 5% acetonitrile 3 min, to 50% in 2 min, to 85% in 15 min, held 3 min, 100 µL/min. Particulars: column: Zorbax Extend-C18 2.1 x 50 mm; eluents: water / acetonitrile, 0.1% formic acid. In outline: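 Pure standards were analyzed in mixtures of ~100 molecules using HPLC coupled to a quadrupole time-of-flight mass spectrometer, in both positive and negative ionization mode. Separation used a Zorbax Extend-C18 column (2.1 × 50 mm, 1.8 μm) at 100 μL/min, with water and acetonitrile each containing 0.1% formic acid. Dead and dwell volumes were 40 μL and 900 μL, and data were collected over 3 months. Retention time was read from computationally picked adduct peaks, each inspected manually.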
For `Cc1nc(C)c(C(=O)N2CCC(C3CCN(S(C)(=O)=O)CC3)C2)s1` (stereo not given), the RP-LC retention time was 656 s. As for `Cc1ccc(S(=O)(=O)N2CC(F)(F)C[C@H]2CN2CCc3ccccc3C2)c(C)c1`, the figure is 816 s. In the case of `Cc1ccccc1-c1noc(Cn2c(=O)n(-c3ccccc3F)c(=O)c3sccc32)n1`, the RP-LC retention time is 1030 s. In the case of `CCC(=O)N1c2ccc(S(=O)(=O)N3CCCCC3)cc2CC1C(=O)NCc1ccccc1C` (stereo not given) it was 916 s; in that of `CCCNC(=O)Cn1c(C)cc(=O)n2nc(-c3ccc(Cl)cc3)nc12`, 871 s; in that of `CCn1cc(CCNC(=O)Nc2ccc3c(c2)OCCO3)c2cccnc21`, 661 s.

`CSc1cccc(N2C=C(C#N)S(=O)(=O)c3ccc(Cl)cc32)c1` had an RP-LC retention time of 961 s.

Compound `O=C(C1=CN(c2cccc(Br)c2)c2ccccc2S1(=O)=O)N1CCOCC1` displayed an RP-LC retention time of 788 s.

In the case of `CCc1ccc(Nc2c(C(=O)N3CCCC(C)C3)cnc3nc(C)ccc23)cc1` (stereo not given), the RP-LC retention time came out at 702 s. For `CC1=CC(C)(C(Cl)(Cl)Cl)C(C)=C/C1=N/O` (stereo not given), the RP-LC retention time is 1100 s. In the case of `O=C(c1ccc(Cl)cc1)N1CCCN(c2nnc3ccccn23)CC1` it was 650 s; in that of `Cc1[nH]c(C(=O)N2CCC(CC(=O)NCCc3c[nH]c4ccccc34)CC2)c(C)c1C`, 674 s. In the case of `CS(=O)(=O)N(Cc1ccccn1)C1CN(C(=O)C2CCC2)C1` it was 603 s; in that of `CN(C)S(=O)(=O)c1ccc(C(=O)OCc2cc(-c3ccc(Cl)cc3)on2)cc1`, 1090 s. As for `CCOc1ccc(-n2cc(C(=O)OCc3ccccn3)c3ccccc3c2=O)cc1`, the figure is 750 s; as for `Cc1sc(NC(=O)C(C)C)nc1-c1ccc2c(c1)NC(=O)CO2`, 750 s. `Cc1cc2nc(C(=O)Nc3ccc(F)c(F)c3)cc(C)n2n1` registered an RP-LC retention time of 986 s. In the case of `Cc1ccc(N(C)C(=O)C2CCN(S(=O)(=O)c3ccc(-c4noc(C5CC5)n4)cc3)CC2)cc1` it was 1100 s. In the case of `O=C(Cn1nc2c(cc1=O)CCCCC2)Nc1nc(-c2ccccn2)cs1` it was 655 s. In the case of `O=C(Nc1cc(-c2ccsc2)no1)c1ccc(F)c(F)c1` it was 982 s; in that of `O=C(CN1C(=O)c2ccccc2C1=O)NCC1(c2cccs2)CCCCC1`, 936 s. In the case of `Cc1noc(C)c1C(=O)N1CCCn2ccnc2C1C1CCCC1` (stereo not given), the RP-LC retention time was determined as 587 s. As for `COCc1cc(=O)n(CCc2ccccc2)c(N2CCCC2)n1`, the figure is 816 s; as for `CCCn1cc(S(=O)(=O)Nc2cccc(C)c2)c2cccnc21`, 845 s.

Consider `CCc1noc(NC(C)=O)c1-c1ccc(OC)c(S(=O)(=O)N2CCN(c3ccccn3)CC2)c1`, for which the RP-LC retention time was 614 s. In the case of `Cn1cc(C(=O)NCc2ccccc2F)c(S(=O)(=O)N2CCSCC2)n1` it was 865 s. In the case of `COc1cc(OC)cc(C(=O)N2CCC3(CC2)NC(=O)c2ccc(F)cc2N3C)c1` it was 734 s; in that of `CCN1CCn2c(nc3cc(C(=O)NCc4ccc(Br)cc4)ccc32)C1=O`, 704 s.

`O=C(NCc1ccc(Cl)cc1)C1CCN(c2cnc(N3CCCC3)nc2)CC1` showed an RP-LC retention time of 712 s.

As to `O=C(Nc1cnc(N2CCCCCC2)nc1)c1ccc(Br)o1`, the RP-LC retention time is 952 s. For the compound `Cc1c(F)cccc1NC(=O)N1CCC(c2cc(=O)n3nccc3n2C)CC1`, the RP-LC retention time amounted to 690 s. In the case of `COc1ccc(NC(=O)C2CCCN(c3nc4ccccc4nc3C(F)(F)F)C2)cc1OC` (stereo not given) it was 1060 s; in that of `Cc1ccc(C(=O)N2CCN(c3nc4ccccc4n(CC(C)C)c3=O)CC2)s1`, 1140 s; in that of `CCN1C(=O)c2cccnc2Sc2cc(CNC(=O)c3cccc4[nH]ccc34)ccc21`, 721 s.

Consider `O=S(=O)(c1cccc(-c2nc(-c3ccccc3)no2)c1)N1CCC2(CC1)OCCO2`, for which the RP-LC retention time was 784 s. As for `CCc1noc([C@@H]2CC(F)(F)CN2C(=O)c2ccoc2)n1`, the figure is 757 s. In the case of `Cc1ccc(NC(=O)Cn2c(N)nc(C)c(C)c2=O)cc1`, the RP-LC retention time worked out at 611 s. `O=C(COc1ccc(Cl)cc1)NCC(=O)N1CCCc2ccccc21` registered an RP-LC retention time of 910 s. Turning to `O=C(CCCn1c(=O)c2cccn2c2ccccc21)NCc1ccccn1`, the RP-LC retention time amounted to 621 s.

In turn, `Oc1c(Cl)cc(Cl)c2cccnc12` yielded an RP-LC retention time of 1020 s. As for `CCOc1ccc(N2CCn3c2nn(Cc2cccc(C(F)(F)F)c2)c(=O)c3=O)cc1`, the figure is 915 s.

For the compound `O=C(Cn1nc(C2CC2)c2cnn(-c3ccc(F)cc3)c2c1=O)NCC1CCCO1` (stereo not given), the RP-LC retention time came to 729 s.

`CNC(=O)c1cc(N2CCOCC2)nc2c(C)cccc12` displayed an RP-LC retention time of 704 s. As for `Cc1nn(CC(=O)NCc2ccc(F)cc2)c(=O)c2nc(-c3ccccc3)sc12`, the figure is 872 s; as for `O=C(NCc1ccco1)c1csc(-c2ccc(N3CCCCC3)nc2)n1`, 819 s; as for `Cc1cccc(Nc2nc(C(=O)NCc3ccc(F)cc3F)cs2)n1`, 843 s.

For the compound `COC(=O)c1ccsc1NC(=O)CS(=O)(=O)Cc1ccccc1`, the RP-LC retention time amounted to 823 s. In turn, `CN(C)c1ccc(C(CNC(=O)c2ccccc2[N+](=O)[O-])N2CCOCC2)cc1` (stereo not given) gave an RP-LC retention time of 560 s. As for `CC(=O)c1cccc(NC2=NS(=O)(=O)c3ccccc32)c1`, the figure is 744 s; as for `CCC(C)NC(=O)C1CCCN(C(=O)Nc2ccc(NC(=O)Nc3ccccc3)cc2)C1` (stereo not given), 730 s. In turn, `CCc1ccc(CNC(=O)C2CCN(Cc3cn(C)c4ccc(Cl)cc34)CC2)cc1` gave an RP-LC retention time of 793 s. Consider `CCc1ccc(CNC(=O)C2CC(=O)N(c3ccc4oc(C)nc4c3)C2)cc1` (stereo not given), for which the RP-LC retention time is 671 s.

In turn, `CNC(=O)c1cc(C)nc2ccc(C)cc12` gave an RP-LC retention time of 561 s. As for `COc1ccc(-c2noc(-c3nnn4c3COC(c3ccc(F)cc3)C4)n2)cc1` (stereo not given), the figure is 1120 s. In the case of `CCOC(=O)c1cccc(Nc2c(-c3ccc(Br)cc3)nc3cnccn23)c1` it was 1040 s.

Compound `COc1ccc2[nH]c(=O)c(CCC(=O)NCC(C)C)cc2c1` displayed an RP-LC retention time of 660 s.

Compound `CCCCNC(=O)CCc1c(C)n(C)c2nc(-c3ccccc3)nn2c1=O` had an RP-LC retention time of 706 s. In the case of `O=C(Cc1ccc(NC(=O)c2ccc(F)cc2Cl)cc1)NC1CC1` it was 681 s. As for `Cc1ccc(-c2noc(-c3nn(-c4cccc(F)c4)ccc3=O)n2)cc1`, the figure is 956 s; as for `O=C(NCCCN1CCCCC1)C1CCN(c2cnn(Cc3ccccc3)c(=O)c2)CC1`, 606 s; as for `N#Cc1ccc(NC(=O)Cn2cccc(-c3nc(-c4ccccc4)no3)c2=O)cc1`, 837 s. As for `O=C(Cn1ccc2ccc(N3CCOCC3)nc21)NCc1ccc(F)cc1Cl`, the figure is 912 s; as for `CCCn1cc(CCNS(=O)(=O)Cc2cc(C)ccc2C)c2cccnc21`, 946 s; as for `COc1cccc(N2C(=O)C3N=NN(Cc4nc(-c5ccc(C)cc5)no4)C3C2=O)c1` (stereo not given), 990 s.

Compound `COc1ccc2[nH]cc(CCNC(=O)c3cc(Cl)ccc3OC)c2c1` registered an RP-LC retention time of 883 s.

Compound `COc1ccccc1NS(=O)(=O)c1cn(C(C)C)c2ncccc12` yielded an RP-LC retention time of 886 s. Take `O=C(NCCc1ccccc1)Nc1cnn(-c2ncc(N3CCCC3)cn2)c1`: the RP-LC retention time was found to be 778 s. As for `COc1ccc(-c2nc3cnccn3c2Nc2ccc(C(=O)NCCN(C)C)cc2)cc1`, the figure is 586 s. In the case of `CN1C2CC(OC(=O)C(CO)c3ccccc3)CC1C(O)C2` (stereo not given) it was 586 s; in that of `Cc1cccc(NC(=O)C2CCN(C(=O)C3Sc4ccccc4NC3=O)CC2)c1` (stereo not given), 790 s. As for `CCOC(=O)c1nc(Nc2ccc(C)cc2Cl)c2ccccc2n1`, the figure is 929 s. `COc1cc(CNS(=O)(=O)c2cn(C(C)C)c3ncccc23)cc(OC)c1` registered an RP-LC retention time of 859 s.

The compound `COC(=O)c1ccsc1NC(=O)c1cc(-c2ccccc2)on1` returned an RP-LC retention time of 1170 s.

Consider `CCc1nc2cc(N3CCCC(C(=O)NCc4ccco4)C3)cnc2nc1CC` (stereo not given), for which the RP-LC retention time stood at 673 s.

Turning to `Cc1ccccc1NC(=O)Cn1ncc2c(c1=O)N(CC1CC1)C(=O)CS2`, the RP-LC retention time turned out to be 797 s. As for `O=C(CN1C(=O)c2ccccc2C1=O)N1CCCN(c2nc3ncccc3o2)CC1`, the figure is 681 s; as for `Cn1c(N2CCCC(C(=O)NCC3CCN(CCc4cccs4)CC3)C2)cc(=O)n(C)c1=O` (stereo not given), 589 s. Take `Cc1cc(C)cc(C(=O)N2CCCC(C(=O)NCc3cccs3)C2)c1` (stereo not given): the RP-LC retention time turned out to be 832 s.

Regarding `Cc1cc2c(cc1S(=O)(=O)N1CCCC1C(=O)N(C)C1CCCCC1)OC(C)C(=O)N2` (stereo not given), the RP-LC retention time came out at 806 s. As for `COc1ccc(C(=O)NC2(c3nc(-c4cccnc4)no3)CCCCC2)cc1F`, the figure is 938 s.
